Reference: patent US11026888B1, “Functional beverage compositions and methods of using and making same” (Nutrition Therapeutics, Inc., priority 2019, dated 2021)

Tests used:
[1] = dissolving of CBD within pomegranate seed oil; assay type: physicochemical; details: even at refrigeration temperatures
Text: (§1) For broad-based consumer success, it is desirable that a functional beverage product consistent in flavor, quality, and mouthfeel be manufacturable using an easily replicated process, and be food-safe. Immiscible components can result in material floating on the surface of the beverage, wherein the immiscible materials can shelter can promote the growth of contaminating organisms or provide localized regions survivable from pasteurizing temperatures. Additionally, such immiscible components can become a choking hazard to the unaware consumer. Non-polar compounds mix well with other non-polar compounds.

[2] = vigorous mixing with water: miscibility / solubility; assay type: physicochemical; details: mixed vigorously
Text: Over time, the non-polar compounds will aggregate together and fall out of aqueous suspension. […] Beverages manufactured with only polar and non-polar substances would behave and result in a composition having an immiscible and undesirable tactile quality; pomegranate seed oil mixed with water is likely to result in a fatty or oily layer on top of the water, or with CBD, the water surface peppered with crystalline flakes. In most cases, the non-polar components are likely to adhere to the sides of the container.
as §1

C=C(C)[C@@H]1CCC(C)=C[C@H]1c1c(O)cc(CCCCC)cc1O [CBD, cannabidiol]
dissolving within pomegranate seed oil [1]: successful dissolving | behaviour in water after vigorous mixing [2]: non-dissolving solid
